# Measured values as given in patent US5126337A, “Thiazetoquinoline-3-carboxylic acid derivative and a pharmaceutical composition comprising the same” (priority 1989, dated 1992).
# Assays:
# [1] = tested on: Klebsiella pneumoniae PCI-602; experiment: Antibacterial spectrum, MIC by twofold agar dilution method; type: cell-based; settings: PCI602, 10^6 cfu/ml, standard laboratory strain, Gram -, 18 hrs at 37° C, read-out: MIC
# Description: Minimum inhibitory concentrations (MIC) of test compounds were determined by the twofold agar dilution method (Chemotherapy, 29(1), 76(1981)). Overnight cultures in Mueller-Hinton broth were suspended by buffered saline gelatin. One loopful of the bacterial suspension (10^6 or 10^8 colony-forming units/ml) was incubated onto the plates containing test compounds. The plates were incubated for 18 hrs at 37° C. The MIC was defined by the lowest concentration of the drug that inhibited visible growth of bacteria.
# [2] = tested on: Pseudomonas aeruginosa IFO 3445; experiment: as above; type: cell-based; settings: IFO3445, 10^6 cfu/ml, standard laboratory strain, Gram -, 18 hrs at 37° C
# Description: (§1) Overnight cultures in Mueller-Hinton broth were suspended by buffered saline gelatin. One loopful of the bacterial suspension (10^6 or 10^8 colony-forming units/ml) was incubated onto the plates containing test compounds. The plates were incubated for 18 hrs at 37° C. The MIC was defined by the lowest concentration of the drug that inhibited visible growth of bacteria.
# [3] = tested on: Enterococcus faecalis HPC 975; experiment: as above; type: cell-based; settings: HPC975, 10^6 cfu/ml, clinically isolated strain, Gram +, 18 hrs at 37° C
# Description: as §1
# [4] = tested on: Acinetobacter calcoaceticus HNR 916; experiment: as above; type: cell-based; settings: HNR916, 10^6 cfu/ml, clinically isolated strain, Gram -, 18 hrs at 37° C
# Description: as §1
# [5] = tested on: Pseudomonas aeruginosa HNR 1537; experiment: as above; type: cell-based; settings: HNR1537, 10^6 cfu/ml, clinically isolated strain, Gram -, 18 hrs at 37° C
# Description: as §1
# [6] = tested on: Pseudomonas aeruginosa HNR 1489; experiment: as above; type: cell-based; settings: HNR1489, 10^6 cfu/ml, clinically isolated strain, Gram -, 18 hrs at 37° C
# Description: as §1
# [7] = tested on: Serratia marcescens HNR 1767; experiment: as above; type: cell-based; settings: HNR1767, 10^6 cfu/ml, clinically isolated strain, Gram -, 18 hrs at 37° C
# Description: as §1
# [8] = tested on: Staphylococuss aureus FDA 209PJC-1; experiment: as above; type: cell-based; settings: 10^6 cfu/ml; standard laboratory strain, Gram +; 18 hrs at 37° C
# Description: as §1
# [9] = tested on: Pseudomonas aeruginosa HNR 1472; experiment: as above; type: cell-based; settings: HNR1472, 10^6 cfu/ml, clinically isolated strain, Gram -, 18 hrs at 37° C
# Description: as §1
# [10] = tested on: Acinetobacter calcoaceticus HNR 939; experiment: as above; type: cell-based; settings: HNR939, 10^6 cfu/ml, clinically isolated strain, Gram -, 18 hrs at 37° C
# Description: as §1
# [11] = tested on: Staphylococcuss aureus HPC 292; experiment: as above; type: cell-based; settings: 10^6 cfu/ml; clinically isolated strain, Gram +; 18 hrs at 37° C; read-out: MIC
# Description: as §1
# [12] = tested on: Klebsiella pneumoniae HNR 869; experiment: as above; type: cell-based; settings: HNR869, 10^6 cfu/ml, clinically isolated strain, Gram -, 18 hrs at 37° C
# Description: as §1
# [13] = tested on: Escherichia coli NIHJ JC-2; experiment: as above; type: cell-based; settings: NIHJJC2, 10^6 cfu/ml, standard laboratory strain, Gram -, 18 hrs at 37° C
# Description: as §1
# [14] = tested on: Klebsiella pneumoniae HNR 828; experiment: as above; type: cell-based; settings: HNR828, 10^6 cfu/ml, clinically isolated strain, Gram -, 18 hrs at 37° C
# Description: as §1
# [15] = tested on: Enterococcus faecalis HPC 984; experiment: as above; type: cell-based; settings: HPC984, 10^6 cfu/ml, clinically isolated strain, Gram +, 18 hrs at 37° C
# Description: as §1
# [16] = tested on: Enterococcus faecalis HPC 948; experiment: as above; type: cell-based; settings: HPC948, 10^6 cfu/ml, clinically isolated strain, Gram +, 18 hrs at 37° C
# Description: as §1
# [17] = tested on: Serratia marcescens IAM 1184; experiment: as above; type: cell-based; settings: IAM1184, 10^6 cfu/ml, standard laboratory strain, Gram -, 18 hrs at 37° C
# Description: as §1
# [18] = tested on: Enterobacter cloacae HNR 1941; experiment: as above; type: cell-based; settings: HNR1941, 10^6 cfu/ml, clinically isolated strain, Gram -, 18 hrs at 37° C
# Description: as §1
# Enterobacter cloacae 963 = experiment: as above; type: cell-based; settings: 10^6 cfu/ml, standard laboratory strain, Gram -, 18 hrs at 37° C
# Description: as §1
# [19] = tested on: Enterobacter cloacae HNR 1946; experiment: as above; type: cell-based; settings: HNR1946, 10^6 cfu/ml, clinically isolated strain, Gram -, 18 hrs at 37° C
# Description: as §1
# [20] = tested on: Serratia marcescens HNR 1544; experiment: as above; type: cell-based; settings: HNR1544, 10^6 cfu/ml, clinically isolated strain, Gram -, 18 hrs at 37° C
# Description: as §1
# [21] = tested on: Staphylococcuss aureus HPC 527; experiment: as above; type: cell-based; settings: 10^6 cfu/ml; clinically isolated strain, Gram +; 18 hrs at 37° C
# Description: as §1
# [22] = tested on: Enterobacter cloacae HNR 1939; experiment: as above; type: cell-based; settings: HNR1939, 10^6 cfu/ml, clinically isolated strain, Gram -, 18 hrs at 37° C
# Description: as §1
# [23] = tested on: Klebsiella pneumoniae HNR 858; experiment: as above; type: cell-based; settings: HNR858, 10^6 cfu/ml, clinically isolated strain, Gram -, 18 hrs at 37° C
# Description: as §1
# Male mice of ddY strain = experiment: Convulsion inducing activity in combination with fenbufen; settings: 30 min after fenbufen 100 mg/kg orally
# Description: Male mice of ddY strain, 5 weeks old, were used. Fenbufen suspended in 0.5% carboxymethyl cellulose was administered orally at a dose of 100 mg/kg. After thirty minutes, test compounds suspended in 0.5% carboxymethyl cellulose were injected intraperitoneally (i.p.) at a dose of 100 mg/kg or 300 mg/kg.
# [24] = tested on: Staphylococcuss aureus HPC 308; experiment: Antibacterial spectrum, MIC by twofold agar dilution method; type: cell-based; settings: 10^6 cfu/ml; clinically isolated strain, Gram +; 18 hrs at 37° C
# Description: as §1
# [25] = tested on: Serratia marcescens HNR 1792; experiment: as above; type: cell-based; settings: HNR1792, 10^6 cfu/ml, clinically isolated strain, Gram -, 18 hrs at 37° C
# Description: as §1
# [26] = tested on: Acinetobacter calcoaceticus HNR 904; experiment: as above; type: cell-based; settings: HNR904, 10^6 cfu/ml, clinically isolated strain, Gram -, 18 hrs at 37° C
# Description: as §1
smiles,measurement,setting,value
"CC1Sc2c(C(=O)O)c(=O)c3cc(F)c(N4CCC(N)C4)c(Cl)c3n21 (stereo not shown) [Example 34, 7-(3-Amino-1-pyrrolidinyl)-8-chloro-6-fluoro-1-methyl-4-oxo-1H,4H-[1,3]thiazeto[3,2-a]quinoline-3-carboxylic acid]",MIC,[1],0.012 µg/mL
same,MIC,[2],0.1 µg/mL
same,MIC,[3],12.5 µg/mL
same,MIC,[4],0.1 µg/mL
same,MIC,[5],3.13 µg/mL
same,MIC,[6],0.2 µg/mL
same,MIC,[7],6.25 µg/mL
same,MIC,[8],0.05 µg/mL
same,MIC,[9],3.13 µg/mL
same,MIC,[10],1.56 µg/mL
same,MIC,[11],6.25 µg/mL
same,MIC,[12],0.78 µg/mL
same,MIC,[13],0.025 µg/mL
same,MIC,[14],3.13 µg/mL
same,MIC,[15],0.2 µg/mL
same,MIC,[16],0.78 µg/mL
same,MIC,[17],0.05 µg/mL
same,MIC,[18],1.56 µg/mL
same,MIC,Enterobacter cloacae 963,0.025 µg/mL
same,MIC,[19],0.2 µg/mL
same,MIC,[20],0.05 µg/mL
same,MIC,[21],0.05 µg/mL
same,MIC,[22],0.2 µg/mL
same,MIC,[23],0.2 µg/mL
same,Number of convulsion induced/Number of animals,Male mice of ddY strain; 100 mg/kg (i.p.),0/6
same,Number of convulsion induced/Number of animals,Male mice of ddY strain; 300 mg/kg (i.p.),0/6
"CC1Sc2c(C(=O)O)c(=O)c3cc(F)c(N4CCC(N(C)C)C4)c(Cl)c3n21 (stereo not shown) [Example 39, 8-Chloro-7-(3-dimethylamino-1-pyrrolidinyl)-6-fluoro-1-methyl-4-oxo-1H, 4H-[1,3]thiazeto[3,2-a]quinoline-3-carboxylic acid]",MIC,[1],0.025 µg/mL
same,MIC,[2],1.56 µg/mL
same,MIC,[3],12.5 µg/mL
same,MIC,[4],0.1 µg/mL
same,MIC,[5],50 µg/mL
same,MIC,[6],1.56 µg/mL
same,MIC,[7],12.5 µg/mL
same,MIC,[8],0.2 µg/mL
same,MIC,[9],25 µg/mL
same,MIC,[10],1.56 µg/mL
same,MIC,[24],1.56 µg/mL
same,MIC,[11],12.5 µg/mL
same,MIC,[12],3.13 µg/mL
same,MIC,[13],0.1 µg/mL
same,MIC,[14],12.5 µg/mL
same,MIC,[15],0.39 µg/mL
same,MIC,[16],1.56 µg/mL
same,MIC,[17],0.39 µg/mL
same,MIC,[18],12.5 µg/mL
same,MIC,[25],12.5 µg/mL
same,MIC,Enterobacter cloacae 963,0.39 µg/mL
same,MIC,[19],0.78 µg/mL
same,MIC,[26],6.25 µg/mL
same,MIC,[20],0.2 µg/mL
same,MIC,[21],0.2 µg/mL
same,MIC,[22],0.78 µg/mL
same,MIC,[23],0.78 µg/mL
"CC1Sc2c(C(=O)O)c(=O)c3cc(F)c(N4CCC(N(C)C)C4)c(F)c3n21 (stereo not shown) [Example 36, 7-(3-Dimethylamino-1-pyrrolidinyl)-6,8-difluoro-1-methyl-4-oxo-1H,4H-[1,3]thiazeto[3,2-a]quinoline-3-carboxylic acid]",MIC,[1],0.025 µg/mL
same,MIC,[2],0.78 µg/mL
same,MIC,[3],6.25 µg/mL
same,MIC,[4],0.1 µg/mL
same,MIC,[5],100 µg/mL
same,MIC,[6],0.78 µg/mL
same,MIC,[7],25 µg/mL
same,MIC,[8],0.2 µg/mL
same,MIC,[9],50 µg/mL
same,MIC,[10],0.78 µg/mL
same,MIC,[24],1.56 µg/mL
same,MIC,[11],6.25 µg/mL
same,MIC,[12],6.25 µg/mL
same,MIC,[13],0.1 µg/mL
same,MIC,[14],12.5 µg/mL
same,MIC,[15],0.78 µg/mL
same,MIC,[16],3.13 µg/mL
same,MIC,[17],0.2 µg/mL
same,MIC,[18],25 µg/mL
same,MIC,[25],12.5 µg/mL
same,MIC,Enterobacter cloacae 963,0.2 µg/mL
same,MIC,[19],0.78 µg/mL
same,MIC,[26],12.5 µg/mL
same,MIC,[20],0.2 µg/mL
same,MIC,[21],0.2 µg/mL
same,MIC,[22],0.78 µg/mL
same,MIC,[23],0.78 µg/mL
"CC1Sc2c(C(=O)O)c(=O)c3cc(F)c(N4CCC(N)C4)c(F)c3n21 (stereo not shown) [Example 33, 7-(3-amino-1-pyrrolidinyl)-6,8-difluoro-1-methyl-4-oxo-1H,4H-[1,3] thiazeto[3,2-a]quinoline-3-carboxylic acid]",MIC,[2],0.1 µg/mL
same,MIC,[3],6.25 µg/mL
same,MIC,[4],0.2 µg/mL
same,MIC,[5],12.5 µg/mL
same,MIC,[6],0.2 µg/mL
same,MIC,[7],12.5 µg/mL
same,MIC,[8],0.025 µg/mL
same,MIC,[10],1.56 µg/mL
same,MIC,[11],6.25 µg/mL
same,MIC,[12],0.78 µg/mL
same,MIC,[13],0.025 µg/mL
same,MIC,[14],3.13 µg/mL
same,MIC,[15],0.2 µg/mL
same,MIC,[16],0.78 µg/mL
same,MIC,[17],0.1 µg/mL
same,MIC,[18],3.13 µg/mL
same,MIC,[25],1.56 µg/mL
same,MIC,Enterobacter cloacae 963,0.05 µg/mL
same,MIC,[19],0.2 µg/mL
same,MIC,[26],25 µg/mL
same,MIC,[20],0.05 µg/mL
same,MIC,[21],0.05 µg/mL
same,MIC,[22],0.2 µg/mL
same,MIC,[23],0.2 µg/mL
same,Number of convulsion induced/Number of animals,Male mice of ddY strain; 100 mg/kg (i.p.),0/6
same,Number of convulsion induced/Number of animals,Male mice of ddY strain; 300 mg/kg (i.p.),0/6
"CC1Sc2c(C(=O)O)c(=O)c3cc(F)c(N4CCC(N)C4)cc3n21 (stereo not shown) [Reference Drug D, 7-(3-amino-1-pyrrolidinyl)-6-fluoro-1-methyl-4-oxo-1H,4H-[1,3]thiazeto[3,2-a]quinoline-3-carboxylic acid, reference compound]",Number of convulsion induced/Number of animals,Male mice of ddY strain; 100 mg/kg (i.p.),0/6
same,Number of convulsion induced/Number of animals,Male mice of ddY strain; 300 mg/kg (i.p.),0/6
"CC1Sc2c(C(=O)O)c(=O)c3cc(F)c(N4CCNCC4)c(F)c3n21 (stereo not shown) [Reference Drug C, 6,8-difluoro-1-methyl-4-oxo-7-(1-piperazinyl)-1H,4H-[1,3]thiazeto[3,2-a]quinoline-3-carboxylic acid, reference compound]",Number of convulsion induced/Number of animals,Male mice of ddY strain; 100 mg/kg (i.p.),6/6
